# Assay results published in PubChem BioAssay (NCI).
# Where “and” joins values, the source holds several entries; their conditions need not be identical. Identical values can stand only once.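 Test compounds were applied to cells in 96-well plates for 48 hours at 5 doses. The concentration for 50% growth inhibition is given as GI50. At the TGI there is no net growth.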
# Legend:
# Assay in all cases: NCI anticancer screen, dose series, 48 h
# RXF 393 renal = system: RXF 393 renal
# MOLT-4 leukemia = system: MOLT-4 leukemia
# KM12 colon = system: KM12 colon
# HL-60(TB) leukemia = system: HL-60(TB) leukemia
# EKVX NSCLC = system: EKVX NSCLC
# A498 renal = system: A498 renal
# 786-0 renal = system: 786-0 renal
# IGROV1 ovarian = system: IGROV1 ovarian
# CCRF-CEM leukemia = system: CCRF-CEM leukemia
# HOP-18 NSCLC = system: HOP-18 NSCLC
# KM20L2 colon = system: KM20L2 colon
# SNB-78 CNS = system: SNB-78 CNS
# HOP-92 NSCLC = system: HOP-92 NSCLC
# TK-10 renal = system: TK-10 renal
# M19-MEL melanoma = system: M19-MEL melanoma
# SK-MEL-5 melanoma = system: SK-MEL-5 melanoma
# SK-MEL-28 melanoma = system: SK-MEL-28 melanoma
# COLO 205 colon = system: COLO 205 colon
# A549 NSCLC = system: A549 NSCLC
# HCT-116 colon = system: HCT-116 colon
# SNB-75 CNS = system: SNB-75 CNS
# SN12C renal = system: SN12C renal
# UACC-62 melanoma = system: UACC-62 melanoma
# RXF-631 renal = system: RXF-631 renal
# NCI-H226 lung = system: NCI-H226 lung
# XF 498 CNS = system: XF 498 CNS
# DLD-1 colon = system: DLD-1 colon
# RPMI-8226 leukemia = system: RPMI-8226 leukemia
# CAKI-1 renal = system: CAKI-1 renal
# SF-268 CNS = system: SF-268 CNS
# OVCAR-5 ovarian = system: OVCAR-5 ovarian
# ACHN renal = system: ACHN renal
# M14 melanoma = system: M14 melanoma
# NCI-H23 lung = system: NCI-H23 lung
# SF-295 CNS = system: SF-295 CNS
# HCT-15 colon = system: HCT-15 colon
# OVCAR-4 ovarian = system: OVCAR-4 ovarian
# UACC-257 melanoma = system: UACC-257 melanoma
# U251 CNS = system: U251 CNS
# SW-620 colon = system: SW-620 colon
# SF-539 CNS = system: SF-539 CNS
# K-562 leukemia = system: K-562 leukemia
# LOX IMVI melanoma = system: LOX IMVI melanoma
# LXFL 529 NSCLC = system: LXFL 529 NSCLC
# HOP-62 NSCLC = system: HOP-62 NSCLC
# NCI-H460 lung = system: NCI-H460 lung
# SK-MEL-2 melanoma = system: SK-MEL-2 melanoma
# HT29 colon = system: HT29 colon
# OVCAR-3 ovarian = system: OVCAR-3 ovarian
# UO-31 renal = system: UO-31 renal
# NCI-H522 lung = system: NCI-H522 lung
# SNB-19 CNS = system: SNB-19 CNS
# DMS 273 small cell lung = system: DMS 273 small cell lung
# DMS 114 small cell lung = system: DMS 114 small cell lung
# SR leukemia = system: SR leukemia
# OVCAR-8 ovarian = system: OVCAR-8 ovarian
# SK-OV-3 ovarian = system: SK-OV-3 ovarian
# HCC-2998 colon = system: HCC-2998 colon
# MALME-3M melanoma = system: MALME-3M melanoma
compound,measurement,setting,value
CCOc1ccc(/C=C\c2cc(OC)c(OC)c(OC)c2)cc1,TGI,RXF 393 renal,0.000904 µM
same,TGI,MOLT-4 leukemia,17.8 µM
same,GI50,KM12 colon,0.0172 µM
same,TGI,KM12 colon,0.185 µM
same,TGI,HL-60(TB) leukemia,0.00354 µM and 0.0155 µM
same,TGI,EKVX NSCLC,> 100 µM
same,TGI,A498 renal,0.0248 µM
same,TGI,786-0 renal,> 100 µM
same,GI50,IGROV1 ovarian,0.0317 µM
same,TGI,IGROV1 ovarian,> 100 µM
same,TGI,CCRF-CEM leukemia,91.3 µM
same,GI50,HOP-18 NSCLC,> 100 µM
same,TGI,HOP-18 NSCLC,> 100 µM
same,TGI,KM20L2 colon,0.00113 µM
same,TGI,SNB-78 CNS,> 100 µM
same,TGI,HOP-92 NSCLC,0.0512 µM
same,TGI,TK-10 renal,> 100 µM
same,TGI,M19-MEL melanoma,> 100 µM
same,TGI,SK-MEL-5 melanoma,0.117 µM
same,TGI,SK-MEL-28 melanoma,> 100 µM
same,TGI,COLO 205 colon,0.399 µM
same,TGI,A549 NSCLC,> 100 µM
same,TGI,HCT-116 colon,0.152 µM
same,TGI,SNB-75 CNS,0.000226 µM
same,TGI,SN12C renal,60.5 µM
same,TGI,UACC-62 melanoma,> 100 µM
same,TGI,RXF-631 renal,> 100 µM
same,TGI,NCI-H226 lung,0.0223 µM and 0.024 µM
same,TGI,XF 498 CNS,0.0917 µM
same,GI50,DLD-1 colon,0.0292 µM
same,TGI,DLD-1 colon,> 100 µM
same,TGI,RPMI-8226 leukemia,5.03 µM
same,TGI,CAKI-1 renal,18.6 µM
same,TGI,SF-268 CNS,> 100 µM
same,TGI,OVCAR-5 ovarian,61.7 µM
same,TGI,ACHN renal,> 100 µM
same,TGI,M14 melanoma,> 100 µM
same,TGI,NCI-H23 lung,0.111 µM
same,TGI,SF-295 CNS,0.000209 µM
same,GI50,HCT-15 colon,0.0322 µM
same,TGI,HCT-15 colon,0.286 µM
same,GI50,OVCAR-4 ovarian,0.403 µM
same,TGI,OVCAR-4 ovarian,> 100 µM
same,TGI,UACC-257 melanoma,98.6 µM
same,TGI,U251 CNS,0.0132 µM and 0.0341 µM
same,TGI,SW-620 colon,> 100 µM
same,TGI,SF-539 CNS,0.000685 µM
same,TGI,K-562 leukemia,> 100 µM
same,TGI,LOX IMVI melanoma,> 100 µM
O=c1cccccc1NCCCCCCCCNc1cccccc1=O,TGI,LXFL 529 NSCLC,> 100 µM
same,TGI,HOP-62 NSCLC,> 100 µM
same,TGI,NCI-H460 lung,> 100 µM
same,TGI,RXF 393 renal,> 100 µM
same,TGI,MOLT-4 leukemia,> 100 µM
same,TGI,KM12 colon,> 100 µM
same,TGI,SK-MEL-2 melanoma,> 100 µM
same,TGI,HL-60(TB) leukemia,> 100 µM
same,TGI,EKVX NSCLC,> 100 µM
same,TGI,786-0 renal,> 100 µM
same,TGI,IGROV1 ovarian,> 100 µM
same,TGI,CCRF-CEM leukemia,> 100 µM
same,TGI,KM20L2 colon,> 100 µM
same,TGI,SNB-78 CNS,> 100 µM
same,TGI,HT29 colon,> 100 µM
same,TGI,HOP-92 NSCLC,87.3 µM
same,TGI,M19-MEL melanoma,> 100 µM
same,TGI,OVCAR-3 ovarian,> 100 µM
same,TGI,COLO 205 colon,> 100 µM
same,TGI,A549 NSCLC,> 100 µM
same,TGI,HCT-116 colon,> 100 µM
same,TGI,SNB-75 CNS,> 100 µM
same,TGI,UO-31 renal,> 100 µM
same,TGI,SN12C renal,> 100 µM
same,TGI,UACC-62 melanoma,> 100 µM
same,TGI,NCI-H522 lung,> 100 µM
same,TGI,RXF-631 renal,> 100 µM
same,TGI,SNB-19 CNS,> 100 µM
same,TGI,NCI-H226 lung,> 100 µM
same,TGI,DMS 273 small cell lung,> 100 µM
same,TGI,DMS 114 small cell lung,> 100 µM
same,TGI,XF 498 CNS,> 100 µM
same,TGI,DLD-1 colon,> 100 µM
same,TGI,RPMI-8226 leukemia,> 100 µM
same,TGI,SR leukemia,> 100 µM
same,TGI,OVCAR-8 ovarian,> 100 µM
same,TGI,CAKI-1 renal,> 100 µM
same,TGI,SF-268 CNS,> 100 µM
same,TGI,OVCAR-5 ovarian,> 100 µM
same,TGI,ACHN renal,> 100 µM
same,TGI,SK-OV-3 ovarian,> 100 µM
same,TGI,M14 melanoma,> 100 µM
same,TGI,NCI-H23 lung,> 100 µM
same,TGI,SF-295 CNS,> 100 µM
same,TGI,HCT-15 colon,> 100 µM
same,TGI,HCC-2998 colon,> 100 µM
same,TGI,UACC-257 melanoma,> 100 µM
same,TGI,MALME-3M melanoma,> 100 µM
same,TGI,U251 CNS,> 100 µM
same,TGI,SW-620 colon,> 100 µM
same,TGI,SF-539 CNS,> 100 µM
same,TGI,K-562 leukemia,> 100 µM
same,TGI,LOX IMVI melanoma,> 100 µM
COC1CC(OC2C(C)OC(OC3C(C)OC(OC4CCC5(C)C(=CCC6(O)C5CC(OC(=O)c5ccc(O)cc5)C5(C)C(O)(C(C)=O)CCC65O)C4)CC3OC)CC2OC)OC(C)C1O (stereo not given) (tested in a mixture with another compound),TGI,LXFL 529 NSCLC,78.4 µM
same,TGI,HOP-62 NSCLC,> 100 µM
same,TGI,NCI-H460 lung,> 100 µM
same,TGI,RXF 393 renal,> 100 µM
same,TGI,MOLT-4 leukemia,82.2 µM
same,TGI,SK-MEL-2 melanoma,45.3 µM
same,TGI,HL-60(TB) leukemia,46.9 µM
same,TGI,EKVX NSCLC,> 100 µM
same,TGI,786-0 renal,57.1 µM
same,TGI,IGROV1 ovarian,> 100 µM
same,TGI,CCRF-CEM leukemia,92.7 µM
same,TGI,HOP-18 NSCLC,> 100 µM
same,TGI,SNB-78 CNS,57.2 µM
same,TGI,HT29 colon,> 100 µM
same,TGI,HOP-92 NSCLC,59.5 µM
same,TGI,TK-10 renal,> 100 µM
same,TGI,M19-MEL melanoma,> 100 µM
same,TGI,OVCAR-3 ovarian,57.2 µM
same,TGI,SK-MEL-28 melanoma,> 100 µM
same,TGI,COLO 205 colon,55.3 µM
same,TGI,A549 NSCLC,> 100 µM
same,TGI,SNB-75 CNS,> 100 µM
same,TGI,UO-31 renal,75 µM
same,TGI,SN12C renal,> 100 µM
same,TGI,UACC-62 melanoma,52.7 µM
same,TGI,RXF-631 renal,> 100 µM
same,TGI,SNB-19 CNS,> 100 µM
same,TGI,NCI-H226 lung,> 100 µM
same,TGI,DMS 273 small cell lung,> 100 µM
same,TGI,XF 498 CNS,9.05 µM
same,TGI,DLD-1 colon,> 100 µM
same,TGI,RPMI-8226 leukemia,95.8 µM
same,TGI,SR leukemia,76.5 µM
same,TGI,OVCAR-8 ovarian,82.5 µM
same,TGI,SF-268 CNS,> 100 µM
same,TGI,OVCAR-5 ovarian,> 100 µM
same,TGI,ACHN renal,> 100 µM
same,TGI,SK-OV-3 ovarian,> 100 µM
same,TGI,NCI-H23 lung,81.6 µM
same,TGI,SF-295 CNS,> 100 µM
same,TGI,HCT-15 colon,> 100 µM
same,TGI,HCC-2998 colon,60.5 µM
same,TGI,UACC-257 melanoma,51.3 µM
same,TGI,MALME-3M melanoma,74.6 µM
same,TGI,U251 CNS,57.5 µM
same,TGI,SW-620 colon,> 100 µM
same,TGI,SF-539 CNS,72.6 µM
same,TGI,LOX IMVI melanoma,34.8 µM
